Measured values as given in EP0595557A1, “New substituted azetidinones as anti-inflammatory and antidegenerative agents” (MERCK & CO. INC., priority 1992, dated 1994).

Molecular target: T1, Human Polymorphonuclear Leukocyte Elastase (Homo sapiens, UniProt P08246)
T1 construct: Crude extract of human polymorphonuclear leukocytes (PMN) containing elastase activity; from tissue; host or cells: human polymorphonuclear leukocytes (crude extract)
T1 sequence (P08246 30-267): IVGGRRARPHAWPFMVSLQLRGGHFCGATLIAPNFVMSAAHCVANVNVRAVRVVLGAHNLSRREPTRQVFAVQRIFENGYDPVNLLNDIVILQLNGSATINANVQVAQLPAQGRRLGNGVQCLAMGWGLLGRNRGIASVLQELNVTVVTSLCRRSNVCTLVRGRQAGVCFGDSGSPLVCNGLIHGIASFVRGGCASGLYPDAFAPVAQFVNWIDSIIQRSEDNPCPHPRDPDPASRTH
Assay: Enzyme assay for inhibition of human polymorphonuclear leukocyte elastase via hydrolysis of Boc-AAPAN or Boc-AAPVN
Format: biochemical
Conditions: pH 7.5, second order rate constant for inactivation of the enzyme, expressed to the nearest thousand, read-out: Kobs/[I]
Method in brief: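 Crude human PMN extract as enzyme source, with 0.2 mM Boc-AAPAN in 0.05M TES buffer pH 7.5. Inhibitors in DMSO were added to substrate before the extract, and rate was followed as ΔOD/min at 410 mµ. Values are kobs/I, the second-order inactivation rate constant (per mole per second).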

Row | kinact/KI [M⁻¹ s⁻¹] | SMILES
1 | 1.44e+06 | CCC[C@@H](NC(=O)N1C(=O)C(CC)(CC)[C@@H]1Oc1ccc(C(=O)N(CC)CCN(C)C)cc1)c1ccc(C)cc1 [Compound 76]
2 | 1.9e+06 | CCC[C@@H](NC(=O)N1C(=O)C(CC)(CC)[C@@H]1Oc1ccc(CC(=O)N(C)Cc2ccccc2)cc1)c1ccc(C)cc1 [Compound 68]
3 | 2.88e+06 | CCC[C@@H](NC(=O)N1C(=O)C(CC)(CC)[C@@H]1Oc1ccc(C(=O)N(C)CCN(C)Cc2cccnc2)cc1)c1ccc(C)cc1 [Compound 145]
4 | 4.73e+06 | CCC[C@@H](NC(=O)N1C(=O)C(CC)(CC)[C@@H]1Oc1ccc(C(=O)OCCN2CCOCC2)cc1)c1ccc(C)cc1 [Compound 17, 2-(1-[4-morpholino]ethyl) [S-(R*,S*)]-4-[[3,3-diethyl-1-[[[1-(4-methyl-phenyl)butyl]amino]carbonyl]-4-oxo-2-azetidinyl]oxy]benzoate]
5 | 457000 | CCC[C@@H](NC(=O)N1C(=O)C(CC)(CC)[C@@H]1Oc1ccc(CC(=O)N(CC)CC)cc1)c1ccc(C)c(C(=O)N(CCC)CCC)c1 [Compound 293]
6 | 2.42e+06 | CCC[C@@H](NC(=O)N1C(=O)C(CC)(CC)[C@@H]1Oc1ccc(C(=O)N(C)CCN(C)C)cc1)c1ccc(CC)c(C(=O)N2CCOCC2)c1 [Compound 272]
7 | 4.45e+06 | CCC[C@@H](NC(=O)N1C(=O)C(CC)(CC)[C@@H]1Oc1ccc(C(=O)OCC(=O)NC(CO)(CO)CO)cc1)c1ccc(C)cc1 [Compound 5]
8 | 1.84e+06 | CCC[C@@H](NC(=O)N1C(=O)C(CC)(CC)[C@@H]1Oc1ccc(C(=O)NCCN2CCOCC2)cc1)c1ccc(C)cc1 [Compound 78]
9 | 1.34e+06 | CCC[C@@H](NC(=O)N1C(=O)C(CC)(CC)[C@@H]1Oc1ccc(CC(=O)NCC(C)N(C)C)cc1)c1ccc(C)cc1 (stereo partly shown) [Compound 57]
10 | 1e+06 | CCC[C@@H](NC(=O)N1C(=O)C(CC)(CC)[C@@H]1Oc1ccc(C(=O)N(C)CCN2CCCC2)cc1)c1ccc(C)cc1 [Compound 95]
11 | 563000 | CCC[C@@H](NC(=O)N1C(=O)C(CC)(CC)[C@@H]1Oc1cc(C)c(C(=O)OCCN(C)C)c(C)c1)c1ccc(C)cc1 (relative stereo) [Compound 304, 2-(dimethylamino)ethyl [S,(R*,S*)]-4-[[3,3-diethyl-1-[[[1-(4-methylphenyl)butyl]amino]carbonyl]-4-oxo-2-azetidinyl]oxy]-2,6-dimethyl-benzoate]
12 | 3.32e+06 | CCC[C@@H](NC(=O)N1C(=O)C(CC)(CC)[C@@H]1Oc1ccc(C(=O)N(C)CCN(C)C)cc1)c1ccc2c(c1)OCO2 [Compound 260]
13 | 1.25e+07 | CCC[C@@H](NC(=O)N1C(=O)C(CC)(CC)[C@@H]1Oc1ccc(C(=O)OCC(=O)N2CCC[C@H]2C(=O)OCc2ccccc2)cc1)c1ccc(C)cc1 [Compound 8]
14 | 3.43e+06 | CCC[C@@H](NC(=O)N1C(=O)C(CC)(CC)[C@@H]1Oc1ccc(C(=O)N(C)CCN(C)Cc2ccccc2)cc1)c1ccc2c(c1)OCO2 [Compound 264]
15 | 290000 | CCC[C@@H](NC(=O)N1C(=O)C(CC)(CC)[C@@H]1Oc1ccc(CC(=O)N(C)CCN(C)C)cc1)c1ccc(C(=O)N2CCOCC2)cc1 [Compound 275]
16 | 1.64e+06 | CCC[C@@H](NC(=O)N1C(=O)C(CC)(CC)[C@@H]1Oc1ccc(C(N)=O)cc1)c1ccc(C)cc1 [Compound 197]
17 | 1.31e+06 | C=CC(C)(C)NCCN(C)C(=O)c1ccc(O[C@@H]2N(C(=O)N[C@H](CCC)c3ccc(C)cc3)C(=O)C2(CC)CC)cc1 [Compound 226]
18 | 1.82e+06 | CCC[C@@H](NC(=O)N1C(=O)C(CC)(CC)[C@@H]1Oc1ccc(C(=O)NC)cc1)c1ccc(C)cc1 [Compound 198]
19 | 2.29e+06 | CCC[C@@H](NC(=O)N1C(=O)C(CC)(CC)[C@@H]1Oc1ccc(C(=O)Nc2cccc(N(C)C)c2)cc1)c1ccc(C)cc1 [Compound 111]
20 | 612000 | CCC[C@@H](NC(=O)N1C(=O)C(CC)(CC)[C@@H]1Oc1cc(C)c(C(=O)OCCN(C(C)C)C(C)C)c(C)c1)c1ccc(C)cc1 [Compound 306, 2-[bis(1-methylethyl)amino]-ethyl [S-(R*,S*)]-4-[[3,3-diethyl-1-[[[1-(4-methylphenyl)butyl]amino]carbonyl]-4-oxo-2-azetidinyl]oxy]-2,6-dimethyl-benzoate]
21 | 2.86e+06 | CCC[C@@H](NC(=O)N1C(=O)C(CC)(CC)[C@@H]1Oc1ccc(C(=O)OCCCN(C)C)cc1)c1ccc(C)cc1 [Compound 14, 3-Dimethylamino-1-propyl [S-(R*,S*)]-4-[[3,3-diethyl-1-[[[1-(4-methyl-phenyl)butyl]amino]carbonyl]-4-oxo-2-azetidinyl]oxy]benzoate]

Row | SMILES | kinact/KI [M⁻¹ s⁻¹]
22 | CCC[C@@H](NC(=O)N1C(=O)C(CC)(CC)[C@@H]1Oc1ccc(CC(=O)N2CCN(C)CC2)cc1)c1ccc(C)cc1 [Compound 41] | 974000
